Assay results: ChEMBL document CHEMBL1123782, “6-Alkoxy-N,N-disubstituted-2-pyridinamines as anticonvulsant agents” (1987)

Legend:
Assay type in all cases: functional
Mus musculus [1] = assay: Anticonvulsant activity expressed as minimum ataxic dose (MAD) at which mice fell off inverted screen at 30 min post administration
Mus musculus [2] = assay: Anticonvulsant activity expressed as minimum effective dose (MED) against tonic extension produced by maximal electroshock (MES) at 30 min post administration in mice; details: 0.5 h, read-out: MED
Mus musculus [3] = assay: Anticonvulsant activity was determined in mouse (administered intraperitoneally) for 0.5 hours using inverted wire mesh ataxia test; details: ip
Mus musculus [4] = assay: Anticonvulsant activity was determined in mouse (administered intraperitoneally) tested for 0.5 hours using rotarod ataxia test (ADD program); details: ip
Mus musculus [5] = assay: Anticonvulsant activity was determined in mouse (administered perorally) tested for 1 hour using maximal electroshock test; details: po
Mus musculus [6] = assay: Anticonvulsant activity was determined in mouse (administered intraperitoneally) for 0.5 hours using maximal electroshock test (ADD program); details: ip
Mus musculus [7] = assay: Anticonvulsant activity was determined in mouse (administered perorally) tested for 1 hour using rotarod ataxia test (ADD program); details: po
Mus musculus [8] = assay: Anticonvulsant activity was determined in mouse (administered perorally) tested for 0.5 hours using inverted wire mesh ataxia test; details: po
Mus musculus [9] = assay: Anticonvulsant activity was determined in mouse (administered intraperitoneally) tested for 0.5 hours using maximal electroshock test; details: ip
Mus musculus [10] = assay: Anticonvulsant activity was determined in mouse (administered intraperitoneally) tested for 0.5 hours using maximal electroshock test (ADD program); details: ip
Mus musculus [11] = assay: Anticonvulsant activity was determined in mouse (administered perorally) tested for 0.5 hours using maximal electroshock test (ADD program); details: po
Rattus norvegicus [12] = assay: Anticonvulsant activity was determined in rat (administered perorally) tested for 0.5 hours using maximal electroshock test; details: po
Mus musculus [13] = assay: Anticonvulsant activity was determined in mouse (administered perorally) for 0.5 hours using maximal electroshock test (ADD) program; details: po
Mus musculus [14] = assay: Anticonvulsant activity was determined in mouse (administered intraperitoneally) tested for 0.5 hours using inverted wire mesh ataxia test; details: ip
Mus musculus [15] = assay: Anticonvulsant activity was determined in mouse (administered intraperitoneally) for 0.5 hours using rotarod ataxia test (ADD program); details: ip
Rattus norvegicus [16] = assay: Anticonvulsant activity was determined in rat (administered perorally) tested for 4 hours using ataxia test; details: po
Mus musculus [17] = assay: Anticonvulsant activity was determined in mouse (administered intraperitoneally) for 0.5 hours using maximal electroshock test; details: ip
Mus musculus [18] = assay: Anticonvulsant activity was determined in mouse (administered perorally) tested for 2.0 hours using rotarod ataxia test (ADD program); details: po
Mus musculus [19] = assay: Anticonvulsant activity was determined in mouse (administered intraperitoneally) tested for 2.0 hours using inverted wire mesh ataxia test; details: ip
Mus musculus [20] = assay: Anticonvulsant activity was determined in mouse administered perorally tested for 2.0 hours using maximal electric shock test; details: po
Mus musculus [21] = assay: Anticonvulsant activity was determined in mouse (administered perorally) tested for 2.0 hours using maximal electric shock test (ADD program); details: po
Mus musculus [22] = assay: Anticonvulsant activity was determined in mouse (administered perorally) tested for 2.0 hours using maximal electroshock test; details: po
Mus musculus [23] = assay: Anticonvulsant activity was determined in mouse (administered intraperitoneally) tested for 2.0 hours using maximal electric shock test (ADD program); details: ip
Mus musculus [24] = assay: Anticonvulsant activity was determined in mouse (administered intraperitoneally) tested for 2.0 hours using rotarod ataxia test (ADD program); details: ip
Mus musculus [25] = assay: Anticonvulsant activity was determined in mouse (administered intraperitoneally) tested for 2.0 hours using maximal electroshock test (ADD program); details: ip
Mus musculus [26] = assay: Anticonvulsant activity was determined in mouse (administered intraperitoneally) tested for 2.0 hours using maximal electroshock test.; details: ip
Mus musculus [27] = assay: Anticonvulsant activity was determined in mouse (administered perorally) tested for 2.0 hours using inverted wire mesh ataxia test; details: po
Mus musculus [28] = assay: Anticonvulsant activity was determined in mouse (administered intraperitoneally) tested for 2.0 hours using electroshock test; details: ip

COc1cccc(N2CCNCC2)n1
MAD (Mus musculus [1]): 10 mg/kg
minimal effective dose (Mus musculus [2]): 30 mg/kg

CC(C)COc1cccc(N2CCN(C)CC2)n1
MAD (Mus musculus [1]): 30 mg/kg
minimal effective dose (Mus musculus [2]): 30 mg/kg

CC(C)COc1cccc(N2CCCNCC2)n1
MAD (Mus musculus [1]): 100 mg/kg
minimal effective dose (Mus musculus [2]): 30 mg/kg

CC(C)COc1cccc(N2CCCCC2)n1
MAD (Mus musculus [1]): >300 mg/kg
minimal effective dose (Mus musculus [2]): > 300 mg/kg

CC(C)Oc1cccc(N2CCNCC2)n1
MAD (Mus musculus [1]): <10 mg/kg
minimal effective dose (Mus musculus [2]): 30 mg/kg

c1cc(OCC2CCCCC2)nc(N2CCNCC2)c1
MAD (Mus musculus [1]): 30 mg/kg
minimal effective dose (Mus musculus [2]): 30 mg/kg

CC(C)COc1cccc(N2CCNCC2)n1
ED50 (Mus musculus [3]): 16 mg/kg
ED10 (Mus musculus [4]): 30 mg/kg
ED90 (Mus musculus [4]): 69 mg/kg
ED10 (Mus musculus [5]): 7.6 mg/kg
ED50 (Mus musculus [5]): 11.1 mg/kg
ED90 (Mus musculus [5]): 17 mg/kg
ED50 (Mus musculus [6]): 7.5 mg/kg
ED10 (Mus musculus [7]): 115 mg/kg
ED50 (Mus musculus [7]): 139 mg/kg
ED90 (Mus musculus [7]): 164 mg/kg
ED10 (Mus musculus [8]): 11 mg/kg
ED50 (Mus musculus [8]): 35 mg/kg
ED90 (Mus musculus [8]): 114 mg/kg
ED10 (Mus musculus [9]): 5.4 mg/kg
ED90 (Mus musculus [9]): 10.7 mg/kg
ED10 (Mus musculus [10]): 5 mg/kg
ED90 (Mus musculus [10]): 11.2 mg/kg
MAD (Mus musculus [1]): 30 mg/kg
ED10 (Mus musculus [11]): 10.7 mg/kg
ED90 (Mus musculus [11]): 35 mg/kg
ED10 (Rattus norvegicus [12]): 6.6 mg/kg
ED50 (Rattus norvegicus [12]): 36 mg/kg
ED90 (Rattus norvegicus [12]): 195 mg/kg
ED50 (Mus musculus [13]): 19 mg/kg
ED10 (Mus musculus [14]): 6.6 mg/kg
ED90 (Mus musculus [14]): 39 mg/kg
ED50 (Mus musculus [15]): 46 mg/kg
minimal effective dose (Mus musculus [2]): 10 mg/kg
ED10 (Rattus norvegicus [16]): 340 mg/kg
ED50 (Rattus norvegicus [16]): 525 mg/kg
ED90 (Rattus norvegicus [16]): 830 mg/kg
ED50 (Mus musculus [17]): 7.5 mg/kg

Oc1cccc(N2CCNCC2)n1
MAD (Mus musculus [1]): >300 mg/kg
minimal effective dose (Mus musculus [2]): > 300 mg/kg

CC(C)COc1cccc(N2CCOCC2)n1
MAD (Mus musculus [1]): 300 mg/kg
minimal effective dose (Mus musculus [2]): 300 mg/kg

c1cc(OCC2CC2)nc(N2CCNCC2)c1
MAD (Mus musculus [1]): 10 mg/kg
minimal effective dose (Mus musculus [2]): 10 mg/kg

c1cc(OC2CCCCC2)nc(N2CCNCC2)c1
MAD (Mus musculus [1]): 10 mg/kg
minimal effective dose (Mus musculus [2]): 30 mg/kg

O=C1NC(=O)C(c2ccccc2)(c2ccccc2)N1 [PHENYTOIN]
ED50 (Mus musculus [18]): 95 mg/kg
ED10 (Mus musculus [19]): 33 mg/kg
ED50 (Mus musculus [19]): 45 mg/kg
ED90 (Mus musculus [19]): 63 mg/kg
ED50 (Mus musculus [20]): 8.3 mg/kg
ED50 (Mus musculus [21]): 9.8 mg/kg
ED10 (Mus musculus [22]): 4.9 mg/kg
ED90 (Mus musculus [22]): 14 mg/kg
ED90 (Mus musculus [23]): 13 mg/kg
ED50 (Rattus norvegicus [12]): 33 mg/kg
ED10 (Mus musculus [24]): 60 mg/kg
ED50 (Mus musculus [24]): 71 mg/kg
ED90 (Mus musculus [24]): 86 mg/kg
ED10 (Mus musculus [25]): 8.4 mg/kg
ED50 (Mus musculus [25]): 10.4 mg/kg
ED10 (Mus musculus [26]): 3.7 mg/kg
ED90 (Mus musculus [26]): 15 mg/kg
ED10 (Mus musculus [27]): 50 mg/kg
ED50 (Mus musculus [27]): 78 mg/kg
ED90 (Mus musculus [27]): 125 mg/kg
ED50 (Mus musculus [28]): 7.4 mg/kg
ED50 (Rattus norvegicus [16]): > 3000 mg/kg

CC(C)COc1cccc(NCCN(C)C)n1
MAD (Mus musculus [1]): 300 mg/kg
minimal effective dose (Mus musculus [2]): 100 mg/kg

CCOc1cccc(N2CCNCC2)n1
MAD (Mus musculus [1]): 10 mg/kg
minimal effective dose (Mus musculus [2]): 30 mg/kg

CN(C)CCOc1cccc(N2CCNCC2)n1
MAD (Mus musculus [1]): >300 mg/kg
minimal effective dose (Mus musculus [2]): > 300 mg/kg
